Read-outs that look alike come from different tables or passages of the source.
What was measured:
[1] = tested on: ERE-luciferase (ER-α-positive BG1Luc4E2 cells); test: ERE-luciferase reporter assay in stably transfected BG1Luc4E2 ovarian cancer cells; assay type: cell-based, human; settings: for EC50: determined using the chemical's own maximum effect set at 100%, luciferase 18 hr after addition; for Fold-induction at EC50: normalized to vehicle control (DMSO = 1)
Excerpt: MDA-MB-231 breast cancer cells ([Cailleau et al. 1978]) obtained from ATCC (American Type Culture Collection; Manassas, VA) and BG1Luc4E2 ovarian cancer cells, a gift from M. Denison (University of California, Davis, CA), were used in estrogen bioassays. BG1LucE2 cells are BG-1 ovarian cancer cells ([Geisinger et al. 1989]) stably transfected with an estrogen-responsive plasmid ([Rogers and Denison 2000]). Most cell culture media and supplements were purchased from Gibco/Invitrogen (Carlsbad, CA), except bovine growth serum (BGS; Hyclone, Logan, UT) and geneticin (G418; Sigma). Most charcoal-stripping reagents and endotoxin-free water were purchased from Sigma-Aldrich (St. Louis, MO) except Dulbecco’s phosphate-buffered saline (DPBS; Mediatech Inc., Herndon, VA). MDA-MB-231 cells were maintained in growth medium (GM): minimum essential media (MEM) supplemented with L-glutamine (2 mM), nonessential amino acids (0.1 mM), HEPES buffer (10 mM), […] insulin, and 5% vol/vol BGS]. BG1Luc4E2 cells were maintained in BG1-GM: alpha-MEM supplemented with HEPES buffer (10 mM), geneticin (0.4 g/L) and 10% vol/vol BGS. Basal medium (BM) for MDA-MB-231 cells consisted of a formulation similar to GM, except that phenol red–free MEM and 3% charcoal-stripped BGS were used. BM for BG1Luc4E2 cells (BG1-BM) consisted of phenol red–free Dulbecco’s modified Eagle media: Nutrient Mixture F12 (DMEM:F12; Gibco/Invitrogen) supplemented with HEPES buffer (10 mM) and 10% vol/vol charcoal-stripped BGS. BGS was stripped of estrogenic activity by methods described previously ([Biswas and Vonderhaar 1987]; [Lippman et al. 1976]).
(§1) We used two ERE-luciferase reporter gene systems: one transiently transfected and the other an established stably transfected cell line. For the transient system, ER-negative MDA-MB-231 breast cancer cells were plated in BM. Two days later cells were transfected using Tfx-20 (Promega, Madison, WI) with expression vectors for ER-α(HEG0; from P. Chambon, Université Louis Pasteur, Illkrich, France), the estrogen-responsive firefly luciferase reporter construct ERE2-pS2-luc ([Long et al. 2001]), and the control Renilla luciferase reporter construct pRL-TK (Promega). Cells were treated with test chemicals 1 hr after transfection, and assayed for luciferase activity after 18 hr. Results are expressed as the ratio of firefly luciferase to Renilla luciferase. For the stable reporter system, ER-positive BG1Luc4E2 ovarian cancer cells ([Rogers and Denison 2000]) were incubated in BG1-BM for 5 days before treatment; cells were then assayed for luciferase activity 18 hr after addition of the test compound.
All statistics were performed using GraphPad Prism, version 3.0a, for Macintosh (GraphPad Software, San Diego CA). For each analysis, we determined whether groups had unequal variances by Bartlett’s test. Group averages with equal variances were compared to each other either by one-way analysis of variance (ANOVA) with Tukey post-test or by unpaired t-test as appropriate. Group averages with unequal variances were compared to each other by t-test with Welch’s correction. […] All values are expressed as mean ± SD or SE as indicated. We considered groups statistically different if p < 0.05 by ANOVA with Tukey posttest or t-test (two-tailed). Dose–response studies were also subjected to regression analysis using a sigmoidal curve fitting model: […]

recombinant ER-α = target: T1, recombinant ER-α (Homo sapiens, UniProt P03372); test: Recombinant ER-α binding assay (3H-E2 displacement)
T1 construct: purchased Panvera/Invitrogen, Madison, WI
T1 sequence (P03372 1-595): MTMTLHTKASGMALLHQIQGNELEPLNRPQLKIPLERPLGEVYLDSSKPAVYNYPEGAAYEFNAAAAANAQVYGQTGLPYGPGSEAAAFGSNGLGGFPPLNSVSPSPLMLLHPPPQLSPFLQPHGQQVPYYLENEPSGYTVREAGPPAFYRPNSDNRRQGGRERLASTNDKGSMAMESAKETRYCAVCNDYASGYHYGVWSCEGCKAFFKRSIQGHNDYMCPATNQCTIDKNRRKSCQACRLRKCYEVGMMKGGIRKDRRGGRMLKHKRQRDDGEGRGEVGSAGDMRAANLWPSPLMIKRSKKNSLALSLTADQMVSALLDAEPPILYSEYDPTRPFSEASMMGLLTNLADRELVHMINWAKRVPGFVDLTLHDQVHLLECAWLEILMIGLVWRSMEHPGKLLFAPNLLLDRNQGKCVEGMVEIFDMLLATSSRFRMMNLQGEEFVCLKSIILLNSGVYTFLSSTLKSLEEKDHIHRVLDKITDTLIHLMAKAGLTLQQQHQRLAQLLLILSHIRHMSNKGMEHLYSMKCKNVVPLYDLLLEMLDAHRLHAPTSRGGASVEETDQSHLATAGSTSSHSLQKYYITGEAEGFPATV

[2] = tested on: ERE-luciferase (BG1Luc4E2 cells); test: ERE-luciferase induction in BG1Luc4E2 cells after cotreatment with 10^−11 M E2; assay type: cell-based, human; settings: for Effect on E2-induced ERE-luciferase activity (cotreatment): compared with the maximal effect of E2 alone
Procedure: as §1
See “Material and Methods” for details. […] Error bars indicate SE.

[3] = tested on: ERE-luciferase (MDA-MB-231 cells transfected with ER-α or BG1Luc4E2 cells); test: ERE-luciferase induction by microsomal metabolites (rat liver microsome incubation products); settings: female rat liver microsomes, complete NADPH generating system
Procedure: as §1

BG1Luc4E2 cells = settings: 5–50 μM, alone or in combination with E2
[4] = 1 nM 3H-E2, 0.6 nM recombinant ER-α, 4°C overnight

SMILES | EC50 ([1]; Homo sapiens, read-out: EC50) [µM] | IC50 (recombinant ER-α) [µM] | Relative affinity (E2 IC50 ÷ test chemical IC50 × 100) (recombinant ER-α) [%] | Effect on E2-induced ERE-luciferase activity (cotreatment) [2] | EC50 [1] | further results
Oc1ccc(Oc2ccc(Br)cc2Br)c(Br)c1 [4′-OH-BDE-17, 4-OH-2, 2′, 4-tribromodiphenyl] | 4.7 | 2.1 | 0.03 | beyond the maximal effect of E2 alone |  | Relative effect (test chemical-to-E2 ratio of luciferase induction at EC50) [1]: 1.30 ratio; Relative estrogen potency (ratio of the E2 EC50 to EEP) [1]: 3.4 × 10^−7 ratio; Relative estrogenic potency compared with DE-71 [1]: approximately 10 fold; Emax ([1]; Homo sapiens, read-out: Estimated maximal effect higher than E2): 30%; Fold-induction at EC50 [1]: 4.3
Oc1cc(Br)c(Br)cc1Br [2,4,5-TBP, 2,4,5-tribromophenol] |  |  |  |  | No effect | IC50 (concentration yielding 50% displacement of 3H-E2 from receptor) (recombinant ER-α; [4]): No effect
Oc1cc(Br)c(Oc2ccc(Br)cc2Br)cc1Br [4′-OH-BDE-49, 4′-OH-2, 2′,4, 5′-tetrabromodiphenyl] | 13 | 2.3 | 0.03 | beyond the maximal effect of E2 alone |  | Relative effect (test chemical-to-E2 ratio of luciferase induction at EC50) [1]: 0.36 ratio; Fold-induction at EC50 [1]: 1.2
C[C@]12CC[C@@H]3c4ccc(O)cc4CC[C@H]3[C@@H]1CC[C@@H]2O [E2, 1, 3, 5(10)-estra-triene-3, 17β-diol, reference compound] | 1.2e-06 |  |  |  |  | Test concentrations inducing ERE-luciferase [1]: above 10^−13 M; Decrease of activity by microsomal incubation [3]: 78%
Oc1ccc(Oc2ccc(Br)cc2Br)c(Br)c1Br [4-OH-BDE-42, 4-HO-2, 2′,3, 4′-tetra-bromodiphenyl] |  | 14 | 0.005 | appeared to induce ERE-luciferase above the E2 maximum, but the effect was not statistically significant |  | 
Oc1cc(Br)ccc1Oc1ccc(Br)cc1Br [2′-OH-BDE-28, 2′-OH - 2,4, 4′ - tribromodiphenyl] |  | 60 | 0.001 | able to antagonize the effect of E2 |  | Concentration at which antagonism of E2 was observed [2]: 50 µM; Toxicity (protein content of culture wells at harvest) (BG1Luc4E2 cells): no toxicity
Oc1c(Br)ccc(Oc2ccc(Br)cc2Br)c1Br [3-OH-BDE-47, 3-OH-2, 2′, 4, 4′-tetrabromodiphenyl] |  |  | 0.001 | able to potentiate the ERE-luciferase induction of E2 |  | IC50 (recombinant ER-α; [4]): 52 µM
Oc1cc(Br)cc(Br)c1Oc1ccc(Br)cc1Br [6-OH-BDE-47, 6-OH-2, 2′,4, 4′-tetra-bromodiphenyl] |  | 11 | 0.001 | able to antagonize the effect of E2 | No effect | Concentration at which antagonism of E2 was observed [2]: 5 µM; Toxicity (protein content of culture wells at harvest) (BG1Luc4E2 cells): no toxicity
Oc1ccc(Br)cc1Br [2,4-DBP, 2,4-dibromophenol] |  |  |  |  | No effect | IC50 (concentration yielding 50% displacement of 3H-E2 from receptor) (recombinant ER-α; [4]): No effect
